PubChem BioAssay (NCI)
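Tested at 5 concentrations; 48 h exposure; 96-well plates; endpoints linearly interpolated, else capped at highest concentration. Abbreviation: GI50, concentration required for 50% inhibition of growth. TGI marks complete inhibition of growth.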

Tests used:
Experiment in all cases: growth of human tumour cells (NCI), 48 h
786-0 renal = system: 786-0 renal
A498 renal = system: A498 renal
COLO 205 colon = system: COLO 205 colon
DU-145 prostate = system: DU-145 prostate
LOX IMVI melanoma = system: LOX IMVI melanoma
M14 melanoma = system: M14 melanoma
OVCAR-3 ovarian = system: OVCAR-3 ovarian
SR leukemia = system: SR leukemia
EKVX NSCLC = system: EKVX NSCLC
SF-295 CNS = system: SF-295 CNS

SMILES	GI50 (786-0 renal) [µM]	TGI (786-0 renal) [µM]	GI50 (A498 renal) [µM]	TGI (A498 renal) [µM]	GI50 (COLO 205 colon) [µM]	TGI (COLO 205 colon) [µM]	GI50 (DU-145 prostate) [µM]	TGI (DU-145 prostate) [µM]	GI50 (LOX IMVI melanoma) [µM]	TGI (LOX IMVI melanoma) [µM]	GI50 (M14 melanoma) [µM]	TGI (M14 melanoma) [µM]	GI50 (OVCAR-3 ovarian) [µM]	TGI (OVCAR-3 ovarian) [µM]	GI50 (SR leukemia) [µM]	TGI (SR leukemia) [µM]	GI50 (EKVX NSCLC) [µM]	TGI (EKVX NSCLC) [µM]	GI50 (SF-295 CNS) [µM]	TGI (SF-295 CNS) [µM]
CCCCCCc1nc2nc(Cl)c(Cl)nc2[nH]1	> 100	> 100	3.81	> 100	8.04	> 100	83.2	> 100	6.24	> 100	> 100	> 100	4.01	> 100	8.98	> 100				
OCC1OC(n2cnc3c(Cl)nc(Cl)cc32)C(O)C1O (stereo unspecified)	> 100	> 100			> 100	> 100	> 100	> 100			> 100	> 100	> 100	> 100			> 100	> 100	> 100	> 100
CSCCOC(=O)C(=[N+]=[N-])c1ccc([N+](=O)[O-])cc1		> 100				> 100				> 100		> 100		> 100		> 100		> 100		> 100
CC1OC(OC2C(CO)OC(O[C@H]3CC[C@@]4(C)C(=CC[C@H]5[C@@H]6C[C@@H]7O[C@]8(CC[C@@H](C)CN8)[C@@H](C)[C@@H]7[C@@]6(C)CC[C@@H]54)C3)C(O)C2O)C(O)C(O)C1O (stereo partly specified)		> 100		> 100		> 100				> 100		> 100		> 100				> 100		> 100
O=S(=O)(Nc1cc(Cl)ccc1Cl)c1ccc(-c2cnc(C3CC3)o2)cc1	0.539	20.9			1.84	13.4	3.72	> 100	3.3	> 100	0.547	10.5	0.512	14.8	0.551	> 100	5.24	85.4	0.406	10.3
CCOc1ccccc1NC(=O)CCc1n[nH]c(=S)o1		> 100								> 100		> 100		> 100		> 100		> 100		> 100
CNC(=O)c1cccc2c(Nc3ccc(NS(C)(=O)=O)cc3OC)c3cccc(C)c3nc12		0.413		1.15		5.24				3.17		2.63		5.02		0.365		12.1		0.555
C=CN(C)S(C)(=O)=O	> 100	> 100	> 100	> 100	> 100	> 100	> 100	> 100	> 100	> 100	> 100	> 100	> 100	> 100	> 100	> 100			> 100	> 100
C=C(C)[C@@H]1CC[C@]2(CO)CC[C@]3(C)[C@H](CC[C@@H]4[C@@]5(C)CCC(NCCc6ccc(O)cc6)C(C)(C)[C@@H]5CC[C@]43C)[C@@H]12 (stereo partly specified)	1.66	3.26	1.32	2.69	1.12	2.68	1.62	3.03	0.783	2.09	1.6	3.05	1.69	3.21	0.334	1.07				
C=C1C(=O)O[C@@H]2C1C[C@@H](O)C(=C)CC/C=C(\C)CCC[C@H](C)[C@H]2OC(C)=O (stereo partly specified)	4.84	16.3	15.3	29.4	2.93	> 100	11.9	25.3	2.14	6.07			3.38	12.6			12	25.6	17.1	31.9
COc1cccc2c1c(C1=C(c3cn(C)c4ccccc34)C(=O)NC1=O)cn2C	> 25	> 25	> 25	> 25	> 25	> 25	> 25	> 25	> 25	> 25	> 25	> 25	> 25	> 25	> 16.6	> 25			> 25	> 25
CCS(=O)(=O)Nc1cccc(Nc2c3cccc(C)c3nc3c(C)cccc23)c1OC	0.485	10.4	0.392	6.01	2.56	> 100	0.545	14.1	0.273	> 91.5	0.435	> 100	4.59	25					0.381	22.1
CC1=C[P+](Cc2ccccc2)(c2ccccc2)CC1 (stereo unspecified)		> 100		> 100		> 100				> 100		> 100		> 100		> 100		> 100		> 100
CCOC(=O)[C@@H](C)C[C@H](Cc1ccccc1)NC(=O)c1csc([C@@H](C[C@H](C(C)C)N(C)C(=O)[C@H](CC)NC(=O)[C@H]2CCCCN2C)OC(C)=O)n1	0.00387	> 16.7			< 0.00167	0.0211	< 0.00167	0.253	0.00842	> 16.7	0.00171	0.00762	< 0.00167	0.00453	< 0.00167	> 16.7	0.00484	> 16.7	< 0.00167	> 4.03
O=C(NCC(O)CNC(=O)C(F)(F)F)C(F)(F)F		> 100		> 100		> 100				> 100		> 100		> 100		> 100		> 100		> 100
CC(C)(C)OC(=O)NC(CO)c1cccc(OCc2ccccc2)c1 (stereo unspecified)		> 100		> 100		> 100				> 100		> 100		> 100		> 100		> 100		> 100
O=C1CC(O)(c2ccccc2)C(c2ccccc2)=C1c1ccccc1 (stereo unspecified)		> 100				35.7				> 100		> 100		88.2				> 100		> 100
